Measured values: ChEMBL document CHEMBL5705896 (ACS Chem Biol, 2013)
pIC50, pKi: −log10 of the molar value.

Experiments:
[1] = Cmax in Swiss albino mouse at 15 to 150 mg/kg administered as single ip dose measured upto 24 hrs; assay type: ADME, organism-based; details: in vivo, dose 15-150 mg/kg
[2] = molecular target: Serotonin 3 (5-HT3) receptor (Homo sapiens) (UniProt P46098+A5X5Y0+O95264+Q70Z44+Q8WXA8); assay: Inhibition of 5-HT3 receptor (unknown origin) at 10 uM by radioligand binding assay relative to control; assay type: protein-complex assay
[3] = molecular target: Tyrosine-protein kinase receptor TYRO3 (Homo sapiens) (UniProt Q06418); assay: Inhibition of human cytoplasmic domain N-terminal GST tagged TYRO3 (453 to 890 end residues) expressed in baculovirus expression system using CSKtide as substrate at 10 uM by mobility shift assay relative to control
Tyrosine-protein kinase receptor TYRO3 (Homo sapiens), sequence (Q06418 whole entry, the tested form may be a part): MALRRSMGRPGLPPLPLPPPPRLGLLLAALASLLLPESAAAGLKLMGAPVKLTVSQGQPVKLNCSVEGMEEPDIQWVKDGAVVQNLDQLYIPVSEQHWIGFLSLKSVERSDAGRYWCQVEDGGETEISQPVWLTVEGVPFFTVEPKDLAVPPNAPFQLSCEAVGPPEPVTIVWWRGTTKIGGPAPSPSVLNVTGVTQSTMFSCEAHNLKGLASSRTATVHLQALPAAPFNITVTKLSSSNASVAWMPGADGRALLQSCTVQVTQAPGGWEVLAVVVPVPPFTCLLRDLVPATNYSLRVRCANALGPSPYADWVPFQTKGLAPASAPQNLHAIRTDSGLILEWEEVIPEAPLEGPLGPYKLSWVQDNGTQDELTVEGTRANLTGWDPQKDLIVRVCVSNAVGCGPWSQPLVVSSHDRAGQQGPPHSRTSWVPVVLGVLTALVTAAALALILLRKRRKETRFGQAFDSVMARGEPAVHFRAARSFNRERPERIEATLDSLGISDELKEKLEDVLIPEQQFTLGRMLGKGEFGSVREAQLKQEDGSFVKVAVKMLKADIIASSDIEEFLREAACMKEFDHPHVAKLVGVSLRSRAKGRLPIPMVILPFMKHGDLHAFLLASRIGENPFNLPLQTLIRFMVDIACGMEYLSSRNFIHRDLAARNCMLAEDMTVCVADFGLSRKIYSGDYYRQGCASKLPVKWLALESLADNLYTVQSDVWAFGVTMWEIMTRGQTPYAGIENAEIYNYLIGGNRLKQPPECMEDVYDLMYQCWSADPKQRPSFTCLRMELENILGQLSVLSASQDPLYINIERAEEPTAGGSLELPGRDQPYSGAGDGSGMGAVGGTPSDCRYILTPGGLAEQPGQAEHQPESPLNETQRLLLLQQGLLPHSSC

[4] = molecular target: Serine/threonine-protein kinase PAK 2 (Homo sapiens) (UniProt Q13177); assay: Inhibition of full length human N-terminal GST tagged PAK2 (1 to 524 end residues) expressed in baculovirus expression system using DAPK1tide as substrate at 10 uM by mobility shift assay relative to control
[5] = molecular target: D(3) dopamine receptor (Homo sapiens) (UniProt P35462); assay: Inhibition of dopamine D3 receptor (unknown origin) at 10 uM by radioligand binding assay relative to control
[6] = molecular target: Histone-lysine N-methyltransferase EZH2 (Homo sapiens, UniProt Q15910, Y641F); assay: Inhibition of EZH2 Y641F mutant (unknown origin) using HMT as substrate incubated for 60 mins by luminescence based analysis
[7] = molecular target: 5-hydroxytryptamine receptor 1D (Homo sapiens) (UniProt P28221); assay: Inhibition of 5-HT1D receptor (unknown origin) at 10 uM by radioligand binding assay relative to control
[8] = molecular target: Alpha-2A adrenergic receptor (Homo sapiens) (UniProt P08913); assay: Inhibition of Alpha2A receptor (unknown origin) at 10 uM by radioligand binding assay relative to control
Alpha-2A adrenergic receptor (Homo sapiens), sequence (P08913 whole entry): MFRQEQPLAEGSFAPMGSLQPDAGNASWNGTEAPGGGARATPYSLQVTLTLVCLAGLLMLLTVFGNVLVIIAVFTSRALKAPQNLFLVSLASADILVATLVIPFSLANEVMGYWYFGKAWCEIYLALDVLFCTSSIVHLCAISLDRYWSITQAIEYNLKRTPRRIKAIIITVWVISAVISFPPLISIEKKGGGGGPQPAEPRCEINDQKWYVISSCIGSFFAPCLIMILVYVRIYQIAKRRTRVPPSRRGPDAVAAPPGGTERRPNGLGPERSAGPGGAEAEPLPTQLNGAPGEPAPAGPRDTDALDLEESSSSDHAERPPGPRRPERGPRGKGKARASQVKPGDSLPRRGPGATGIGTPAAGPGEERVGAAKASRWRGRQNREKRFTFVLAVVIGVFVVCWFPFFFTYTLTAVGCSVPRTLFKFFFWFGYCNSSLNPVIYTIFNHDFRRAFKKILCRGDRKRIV

[9] = molecular target: Sigma intracellular receptor 2 (Homo sapiens, UniProt Q5BJF2); assay: Binding affinity to sigma 2 receptor (unknown origin) assessed as inhibition constant
[10] = molecular target: Translocator protein (Homo sapiens) (UniProt P30536); assay: Inhibition of PBR (unknown origin) at 10 uM by radioligand binding assay relative to control
[11] = molecular target: Mitogen-activated protein kinase 9 (Homo sapiens) (UniProt P45984); assay: Inhibition of human catalytic domain N-terminal GST tagged JNK2 (1 to 364 residues) expressed in Escherichia coli expression system using modified Erktide as substrate at 10 uM by mobility shift assay relative to control
Mitogen-activated protein kinase 9 (Homo sapiens), sequence (P45984 whole entry, looked up, the tested form may be a part): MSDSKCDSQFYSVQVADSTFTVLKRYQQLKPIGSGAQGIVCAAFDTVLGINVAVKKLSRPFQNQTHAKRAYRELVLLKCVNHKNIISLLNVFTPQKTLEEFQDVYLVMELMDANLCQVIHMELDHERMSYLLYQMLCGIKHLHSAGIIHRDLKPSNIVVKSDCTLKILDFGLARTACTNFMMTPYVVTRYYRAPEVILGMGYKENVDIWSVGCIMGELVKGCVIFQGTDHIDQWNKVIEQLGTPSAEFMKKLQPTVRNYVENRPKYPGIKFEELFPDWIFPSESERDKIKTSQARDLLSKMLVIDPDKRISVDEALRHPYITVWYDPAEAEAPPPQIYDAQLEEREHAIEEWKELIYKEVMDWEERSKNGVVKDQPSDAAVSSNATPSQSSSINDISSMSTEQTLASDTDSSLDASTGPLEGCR

[12] = molecular target: Ephrin type-A receptor 2 (Homo sapiens) (UniProt P29317); assay: Inhibition of human cytoplasmic domain N-terminal GST tagged EPHA2 (572 to 976 end residues) expressed in baculovirus expression system using Blk/lyntide as substrate at 10 uM by mobility shift assay relative to control
[13] = molecular target: Vascular endothelial growth factor receptor 2 (Homo sapiens) (UniProt P35968); assay: Inhibition of human cytoplasmic domain N-terminal GST tagged KDR (790 to 1356 end residues) expressed in baculovirus expression system using CSKtide as substrate at 10 uM by mobility shift assay relative to control
Vascular endothelial growth factor receptor 2 (Homo sapiens), sequence (P35968 whole entry, the tested form may be a part): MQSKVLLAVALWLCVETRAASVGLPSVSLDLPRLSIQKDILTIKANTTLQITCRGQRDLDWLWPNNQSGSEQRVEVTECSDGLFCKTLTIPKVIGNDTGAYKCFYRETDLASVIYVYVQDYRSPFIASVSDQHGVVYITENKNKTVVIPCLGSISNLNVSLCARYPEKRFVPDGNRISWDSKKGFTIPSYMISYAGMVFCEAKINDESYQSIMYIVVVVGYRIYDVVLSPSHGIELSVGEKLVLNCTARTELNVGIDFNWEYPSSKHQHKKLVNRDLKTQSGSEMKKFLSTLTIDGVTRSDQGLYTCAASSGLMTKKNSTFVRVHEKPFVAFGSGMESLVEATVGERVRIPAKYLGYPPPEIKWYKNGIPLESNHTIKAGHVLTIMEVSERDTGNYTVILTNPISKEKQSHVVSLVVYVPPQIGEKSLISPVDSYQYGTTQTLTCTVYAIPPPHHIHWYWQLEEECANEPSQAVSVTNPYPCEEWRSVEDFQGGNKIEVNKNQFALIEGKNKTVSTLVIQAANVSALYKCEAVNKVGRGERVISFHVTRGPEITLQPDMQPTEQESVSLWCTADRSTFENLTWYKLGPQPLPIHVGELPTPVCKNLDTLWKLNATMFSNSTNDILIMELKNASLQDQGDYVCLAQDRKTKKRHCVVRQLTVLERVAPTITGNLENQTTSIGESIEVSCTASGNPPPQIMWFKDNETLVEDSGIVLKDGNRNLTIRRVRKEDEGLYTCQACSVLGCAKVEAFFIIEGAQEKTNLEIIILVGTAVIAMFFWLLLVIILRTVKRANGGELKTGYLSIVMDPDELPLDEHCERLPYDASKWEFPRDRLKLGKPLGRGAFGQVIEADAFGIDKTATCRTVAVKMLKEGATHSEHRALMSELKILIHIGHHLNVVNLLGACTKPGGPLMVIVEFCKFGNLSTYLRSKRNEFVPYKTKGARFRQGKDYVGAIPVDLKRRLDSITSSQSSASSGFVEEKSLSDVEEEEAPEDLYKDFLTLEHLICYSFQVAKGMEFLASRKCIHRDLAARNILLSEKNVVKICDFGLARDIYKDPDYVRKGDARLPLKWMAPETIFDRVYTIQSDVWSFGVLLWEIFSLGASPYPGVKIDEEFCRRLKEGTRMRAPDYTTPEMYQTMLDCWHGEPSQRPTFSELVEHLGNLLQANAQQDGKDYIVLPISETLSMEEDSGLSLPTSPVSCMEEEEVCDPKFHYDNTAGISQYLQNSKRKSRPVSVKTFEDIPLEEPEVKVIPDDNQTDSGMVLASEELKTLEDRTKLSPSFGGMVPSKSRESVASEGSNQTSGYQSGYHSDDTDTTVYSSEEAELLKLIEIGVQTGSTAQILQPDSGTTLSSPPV

[14] = molecular target: Histamine H1 receptor (Homo sapiens) (UniProt P35367); assay: Inhibition of H1 receptor (unknown origin) at 10 uM by radioligand binding assay relative to control
[15] = molecular target: Ephrin type-B receptor 4 (Homo sapiens) (UniProt P54760); assay: Inhibition of human cytoplasmic domain N-terminal GST tagged EPHB4 (577 to 987 end residues) expressed in baculovirus expression system using Blk/lyntide as substrate at 10 uM by mobility shift assay relative to control
[16] = molecular target: Histone-lysine N-methyltransferase KMT5B (Homo sapiens, UniProt Q4FZB7); assay: Inhibition of SUV420H1 (unknown origin) using [3H-SAM] as substrate incubated for 1 hr by scintillation proximity assay
[17] = molecular target: N-lysine methyltransferase SMYD2 (Homo sapiens, UniProt Q9NRG4); assay: Inhibition of SMYD2 (unknown origin) using [3H-SAM] as substrate incubated for 1 hr by scintillation proximity assay
N-lysine methyltransferase SMYD2, sequence (Q9NRG4 whole entry): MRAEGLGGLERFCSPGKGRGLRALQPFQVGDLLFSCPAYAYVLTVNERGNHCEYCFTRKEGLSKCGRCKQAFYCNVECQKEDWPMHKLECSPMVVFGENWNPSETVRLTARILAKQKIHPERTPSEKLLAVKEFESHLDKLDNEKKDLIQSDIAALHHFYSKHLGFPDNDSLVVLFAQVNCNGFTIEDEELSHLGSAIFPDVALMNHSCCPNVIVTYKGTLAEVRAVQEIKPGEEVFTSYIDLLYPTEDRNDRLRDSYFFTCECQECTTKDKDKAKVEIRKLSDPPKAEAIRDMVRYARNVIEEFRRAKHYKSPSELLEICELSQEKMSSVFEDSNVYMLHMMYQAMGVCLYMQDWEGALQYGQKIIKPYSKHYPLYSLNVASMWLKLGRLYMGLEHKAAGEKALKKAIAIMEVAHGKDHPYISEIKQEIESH

[18] = molecular target: 3-phosphoinositide-dependent protein kinase 1 (Homo sapiens) (UniProt O15530); assay: Inhibition of full length human N-terminal GST tagged PDK1 (1 to 556 end residues) expressed in baculovirus expression system using T308tide as substrate at 10 uM by mobility shift assay relative to control
3-phosphoinositide-dependent protein kinase 1 (Homo sapiens), sequence (O15530 whole entry, looked up, the tested form may be a part): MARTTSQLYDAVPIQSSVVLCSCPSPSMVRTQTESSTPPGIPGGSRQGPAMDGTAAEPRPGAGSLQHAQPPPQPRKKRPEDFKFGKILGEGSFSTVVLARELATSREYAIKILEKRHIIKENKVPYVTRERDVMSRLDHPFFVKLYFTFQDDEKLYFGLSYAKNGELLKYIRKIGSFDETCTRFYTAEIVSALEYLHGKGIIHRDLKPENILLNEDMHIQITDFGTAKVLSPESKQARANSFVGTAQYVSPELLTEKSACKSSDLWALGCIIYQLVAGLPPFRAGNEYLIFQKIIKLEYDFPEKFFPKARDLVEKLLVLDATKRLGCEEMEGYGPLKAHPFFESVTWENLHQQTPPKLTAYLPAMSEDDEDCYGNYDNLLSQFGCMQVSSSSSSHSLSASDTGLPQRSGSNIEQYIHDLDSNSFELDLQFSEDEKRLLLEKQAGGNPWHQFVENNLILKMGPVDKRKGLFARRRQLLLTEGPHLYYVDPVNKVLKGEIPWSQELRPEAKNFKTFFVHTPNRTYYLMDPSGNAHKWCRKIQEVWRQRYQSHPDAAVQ

[19] = molecular target: Fibroblast growth factor receptor 1 (Homo sapiens) (UniProt P11362); assay: Inhibition of human cytoplasmic domain N-terminal GST tagged FGFR1 (398 to 822 end residues) expressed in baculovirus expression system using CSKtide as substrate at 10 uM by mobility shift assay relative to control
[20] = molecular target: CDK2/Cyclin A2 (Homo sapiens) (UniProt P24941+P20248); assay: Inhibition of full length human N-terminal GST tagged CDK2 (1 to 298 residues)/GST tagged CycA2 (1 to 432 end residues) expressed in baculovirus expression system using histone H1 as substrate at 10 uM by mobility shift assay relative to control
[21] = molecular target: Protein arginine N-methyltransferase 5 (Homo sapiens, UniProt O14744); assay: Inhibition of PRMT5 (unknown origin) using [3H-SAM] as substrate incubated for 1 hr by scintillation proximity assay
[22] = molecular target: Aurora kinase A (Homo sapiens) (UniProt O14965); assay: Inhibition of full length human N-terminal GST tagged AurA (1 to 403 end residues) expressed in baculovirus expression system using kemptide as substrate at 10 uM by mobility shift assay relative to control
[23] = molecular target: Histone-lysine N-methyltransferase EHMT1 (Homo sapiens, UniProt Q9H9B1); assay: Inhibition of EHMT1 (unknown origin) using [3H-SAM] as substrate incubated for 1 hr by scintillation proximity assay
[24] = molecular target: Alpha-2B adrenergic receptor (Homo sapiens) (UniProt P18089); assay: Inhibition of Alpha2B receptor (unknown origin) at 10 uM by radioligand binding assay relative to control
Alpha-2B adrenergic receptor (Homo sapiens), sequence (P18089 whole entry, the tested form may be a part): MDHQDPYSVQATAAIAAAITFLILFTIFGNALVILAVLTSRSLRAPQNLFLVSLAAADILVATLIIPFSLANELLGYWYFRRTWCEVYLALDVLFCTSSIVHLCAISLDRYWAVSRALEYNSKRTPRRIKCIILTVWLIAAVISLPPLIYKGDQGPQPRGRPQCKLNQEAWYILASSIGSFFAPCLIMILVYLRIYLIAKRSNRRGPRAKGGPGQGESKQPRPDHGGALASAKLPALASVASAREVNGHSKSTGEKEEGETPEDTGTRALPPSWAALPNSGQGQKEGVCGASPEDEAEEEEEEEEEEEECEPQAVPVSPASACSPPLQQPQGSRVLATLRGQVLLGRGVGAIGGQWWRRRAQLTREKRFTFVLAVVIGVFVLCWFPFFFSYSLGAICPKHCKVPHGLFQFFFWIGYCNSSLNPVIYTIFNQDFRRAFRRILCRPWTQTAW

[25] = molecular target: Tyrosine-protein kinase JAK3 (Homo sapiens) (UniProt P52333); assay: Inhibition of human catalytic domain N-terminal his tagged JAK3 (795 to 1124 end residues) expressed in baculovirus expression system using Srctide as substrate at 10 uM by mobility shift assay relative to control
[26] = molecular target: High affinity nerve growth factor receptor (Homo sapiens) (UniProt P04629); assay: Inhibition of human cytoplasmic domain N-terminal GST tagged TRKA (436 to 790 end residues) expressed in baculovirus expression system using CSKtide as substrate at 10 uM by mobility shift assay relative to control
[27] = molecular target: Alpha-1A adrenergic receptor (Homo sapiens) (UniProt P35348); assay: Inhibition of Alpha1A receptor (unknown origin) at 10 uM by radioligand binding assay relative to control
Alpha-1A adrenergic receptor (Homo sapiens), sequence (P35348 whole entry): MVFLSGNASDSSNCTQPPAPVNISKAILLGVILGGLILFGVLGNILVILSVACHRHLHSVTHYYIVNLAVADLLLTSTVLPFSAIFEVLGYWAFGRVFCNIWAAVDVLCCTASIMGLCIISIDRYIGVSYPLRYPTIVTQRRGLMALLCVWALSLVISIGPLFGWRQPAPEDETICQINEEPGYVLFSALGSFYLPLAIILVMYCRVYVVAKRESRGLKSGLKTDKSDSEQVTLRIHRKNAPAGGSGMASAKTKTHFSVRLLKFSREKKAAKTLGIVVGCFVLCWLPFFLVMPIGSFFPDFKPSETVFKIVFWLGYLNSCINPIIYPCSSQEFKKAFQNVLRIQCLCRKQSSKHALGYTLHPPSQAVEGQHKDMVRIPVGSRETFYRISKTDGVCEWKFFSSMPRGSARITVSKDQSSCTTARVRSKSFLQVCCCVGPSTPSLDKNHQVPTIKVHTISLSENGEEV

[28] = molecular target: Histone-lysine N-methyltransferase 2A (Homo sapiens, UniProt Q03164); assay: Inhibition of MLL1 (unknown origin) using [3H-SAM] as substrate incubated for 1 hr by scintillation proximity assay

Work on `CCCc1cc(C)[nH]c(=O)c1CNC(=O)c1cc(-c2ccc(N3CCN(C(C)C)CC3)nc2)cc2c1cnn2C(C)C` yielded a Cmax [1] of 9.7 µM, an inhibition [2] of 12% and an inhibition [3] of -1%. For the same compound, the inhibition [4] was 4%, the inhibition [5] was 28% and the pIC50 [6] was greater than 7.82. It also gave an inhibition [7] of 50%, an inhibition [8] of 14% and a pKi [9] of 7.19. For the same compound, the inhibition [10] was 31%, the inhibition [11] was 5% and the inhibition [12] was -6%. The inhibition [13] was -2%, the inhibition [14] was 16% and the inhibition [15] was -6%. It also gave a pIC50 [16] of less than 4.00, a pIC50 [17] of less than 4.00 and an inhibition [18] of -6%. For the same compound, the inhibition [19] was -9%, the inhibition [20] was -3% and the pIC50 [21] was less than 4.00. It also gave an inhibition [22] of -4%, a pIC50 [23] of less than 4.00 and an inhibition [24] of 48%. For the same compound, the inhibition [25] was -8%, the inhibition [26] was 7% and the inhibition [27] was 3%. For the same compound, the pIC50 [28] was less than 4.00.
